Measured values: patent US6437138B1, “3-pyridyloxymethyl heterocyclic ether compounds useful in controlling chemical synaptic transmission” (priority 1996, dated 2002)
Structures can show the parent of a compound that is named as a salt.

SMILES | melting point
CN1CCC[C@H]1COc1cncc(CCc2ccncc2)c1 (as salt: hydrochloride) [Example 29, 5-(2-(4-Pyridinnyl)ethyl)-3-(1-methyl-2-(S)-pyrrolidinnylmethoxy)pyridine Trihydrochloride] | 148 to 150 °C
CN1CCC[C@H]1COc1cncc(-c2ccc(F)c(Cl)c2)c1 (as salt: hydrochloride) [Example 42, 5-(3-Chloro-4-fluorolphenyl)-3-(1-methyl-2-(S)-pyrrolidinylmethoxy)pyridine Dihydrochloride] | 202 to 204 °C
CCCCCCC#Cc1cc(OC[C@H]2CCCN2C)cnc1Cl.Cl.Cl [Example 80, 5-(1-Octynyl)-6-chloro-3-(1-methyl-2-(R)-pyrrolidinylmethoxy)pyridine Dihydrochloride] | 114 to 116 °C (dec.)
CN1CCC[C@H]1COc1cncc(-c2ccco2)c1 (as salt: hydrochloride) [Example 5, 5-(2-Furanyl-3-(1-methyl-2-(S)-pyrrolidinylmethoxy)pyridine Dihydrochloride] | 189 to 191 °C
C=Cc1cc(OC[C@H]2CCCN2C)cnc1Cl.Cl [Example 168, 6-Chloro-5-ethenyl-3-(1-methyl-2-(R)-pyrrolidinylmethoxy)pyridine Hydrochloride] | 173 to 175 °C
C=CCc1cc(OC[C@@H]2CCN2C)cnc1Cl.Cl [Example 179, 5-Allyl-3-(1-methyl-2-(S)-azetidinylmethoxy)-6-chloropyridine Hydrochloride] | 109 to 111 °C
C=Cc1cc(OC[C@@H]2CCCN2C)cnc1Cl.Cl [Example 192, 6-Chloro-5-ethenyl-3-(1-methyl-2-(S)-pyrrolidinylmethoxy)pyridine Hydrochloride] | 182 to 184 °C
CN1CCC[C@H]1COc1cnc(Cl)c(C=Cc2ccncc2)c1 (as salt: hydrochloride) [Example 50, 5-(2-(4-Pyridinyl)ethenyl)-6-chloro-3-(1-methyl-(2-(S)-pyrrolidinylmethoxy)pyridine Dihydrochloride] | 218 to 222 °C
C=Cc1ccc(OC[C@@H]2CCN2C)cn1.Cl.Cl [Example 202, 6-Ethenyl-3-(1-methyl-2-(S)-azetidinylmethoxy)pyridine Dihydrochloride] | 105 to 107 °C
CC(C)(C)C=CC=Cc1cc(OC[C@H]2CCCN2)cnc1Cl.Cl.Cl [Example 77, 5-(5,5-Dimethyl-1,3-hexadienyl)-6-chloro-3-(2-(R)-pyrrolidinylmethoxy)pyridine Dihydrochloride] | 190 to 192 °C
CN1CCC[C@@H]1COc1cnc(Cl)c(C=Cc2ccncc2)c1 (as salt: hydrochloride) [Example 82, 5-(2-(4-Pyridinnyl)ethenyl)-6-chloro-3-(1-methyl-2-(R)-pyrrolidinylmethoxy)pyridine Dihydrochloride] | 220 to 222 °C (dec.)
CN1CCC[C@H]1COc1cnc(Cl)c(C=CC=CC(C)(C)C)c1.Cl.Cl [Example 149, 6-Chloro-5-(5,5-dimethyl-1,3-hexadienyl)-3-(1-methyl-2-(S)-pyrrolidinylmethoxy)pyridine Dihydrochloride] | 220 °C
CN1CCC[C@H]1COc1cncc(-c2cccs2)c1 (as salt: hydrochloride) [Example 6, 5-(2-Thienyyl)-3-(1-methyl-2-(S)-pyrrolidinylmethoxy)pyridine Dihydrochloride] | 201 to 203 °C
C=Cc1ncc(OC[C@@H]2CCCN2C)cc1C.Cl [Example 188, 6-Ethenyl-5-methyl-3-(1-methyl-2-(S)-pyrrolidinylmethoxy)pyridine Hydrochloride] | 50 °C (dec.)
CCCCCCCCC#Cc1cncc(OC[C@@H]2CCCN2C)c1.Cl.Cl [Example 9, 5-(1-Decynyl)-3-(1-methyl-2-(S)-pyrrolidinylmethoxy)pyridine Dihydrochloride] | 102 to 105 °C
CN1CC[C@H]1COc1cnc(Cl)c(-c2ccc(Cl)cc2)c1 (as salt: citrate) [Example 143, 6-Chloro-5-(4-chlorophenyl)-3-(1-methyl-2-(S)-azetidialmethoxy)pyridine Citrate] | 78 to 79 °C
C=CCc1cc(OC[C@@H]2CCCN2C)cnc1Cl.Cl [Example 184, 5-Allyl-6-chloro-3-(1-methyl-2-(S)-pyrrolidinylmethoxy)pyridine Hydrochloride] | 150 to 152 °C
CN1CCC[C@H]1COc1cncc(-c2cnc3ccccc3c2)c1 (as salt: hydrochloride) [Example 35, 5-(3-Ouinolinyl)-3-(1-methyl-2-(S)-pyrrolidinylmethoxy)pyridine Trihydrochloride] | 184 to 186 °C
CN1CCC[C@H]1COc1cncc(-c2cc(C(F)(F)F)cc(C(F)(F)F)c2)c1 (as salt: hydrochloride) [Example 37, 5-(3,5-bis(Trifluoromehyl)phenyl)-3-(1-methyl-2-(S)-pyrrolidinylmethoxy)pyridine Dihydrochloride] | 68 to 70 °C
CN1CCC[C@H]1COc1cncc(C=Cc2ccncc2)c1 (as salt: hydrochloride) [Example 13, 5-(2-(4-Pyridinyl)ethenylyl)-3-((1-methyl-2-(S)-pyrrolidinylmethoxy)pyridine Triihydrochloride] | 187 to 190 °C
Clc1ncc(OC[C@@H]2CCN2)cc1C=Cc1ccncc1 (as salt: citric acid salt) [Example 89, 5-(2-(4-Pyridinyl)ethenyl)-6-chloro-3-(2-(S)-azetidnylmethoxy)pyridine Citric Acid Salt] | 195 to 197 °C
CCCCCCC#Cc1cc(OC[C@@H]2CCCN2C)cnc1Cl.Cl.Cl [Example 146, 6-Chloro-3-(1-methyl-2-(S)-pyrrolidinylmethoxy)-5-(1-octynyl)pyridine Dihydrochloride] | 223 to 225 °C
C=Cc1cc(OC[C@@H]2CCN2C)cnc1C (as salt: salt) [Example 196, 5-Ethenyl-6-methyl-3-(1-methyl-2-(S)-azetidinylmethoxy)pyridine] | 140 to 143 °C
CN1CCC[C@H]1COc1cncc(-c2ccc3ccccc3c2)c1 (as salt: hydrochloride) [Example 31, 5-(2-Naphthalenyl-3-(1-methyl-2-(S)-pyrrolidinylmethoxy)pyridine Dihydrochloride] | 248 to 251 °C
COC(=O)C=Cc1cncc(OC[C@@H]2CCCN2C)c1 (as salt: hydrochloride) [Example 16, 5-(2-(Methoxycarbonyl)ethenyl-3-(1-methyl-2-(S)-pyrrolidinylmethoxy)pyridine Dihydrochloride] | 128 to 130 °C
CN1CC[C@@H]1COc1cnc(Cl)c(-c2ccccc2)c1.Cl [Example 189, 6-Chloro-3-(1-methyl-2-(R)-azetidinylmethoxy)-5-phenylpyridine Hydrochloride] | 173 to 175 °C
C=Cc1cc(OC[C@@H]2CCN2C)cnc1F (hydrate or solvate) [Example 204, 5-Ethenyl-6-fluoro-3-(1-methyl-2-(S)-azetidinylmethoxy)pyridine] | 156 to 158 °C

The next lines start with the values.

melting point | SMILES
214 to 216 °C | C#Cc1cc(OC[C@@H]2CCCN2)cnc1Cl (as salt: hydrochloride) [Example 194, 6-Chloro-5-(ethynyl-3-(2-(S)-pyrrolidinylmethoxy)pyridine Hydrochloride]
223 to 225 °C | CN1CCC[C@@H]1COc1cncc(-c2ccc(Cl)cc2)c1.Cl.Cl [Example 141, 5-(4-Chlorophenyl)-3-(1-methyl-2-(R)-pyrrolidinylmethoxy)pyridine Dihydrochloride]
108 to 110 °C | CN1CCC[C@H]1COc1cnc(Cl)c(-c2cccnc2)c1.Cl.Cl [Example 147, 6-Chloro-3-(1-methyl-2-(S)-pyrrolidinylmethoxy)-5-(3-pyridyl)pyridine Dihydrochloride]
65 to 67 °C | C=CCc1cncc(OC[C@@H]2CCCN2C)c1.Cl.Cl [Example 177, 5-Allyl-3-(1-methyl-2-(S)-pyrrolidinylmethoxy)pyridine Dihydrochloride]
68 to 70 °C | Cl.Nc1cccc(-c2cncc(OC[C@@H]3CCCN3)c2)c1 [Example 158, 5-(3-Aminophenyl)-3-(2-(S)-pyrrolidinylmethoxy)pyridine Hydrochlorid]
132 to 134 °C | CN1CC[C@H]1COc1cncc(OCc2ccccc2)c1.Cl [Example 200, 5-Benzyloxy-3-(1-methyl-2-(S)-azetidinylmethoxy)pyridine Hydrochloride]
155 to 157 °C | C#Cc1cc(OC[C@H]2CCN2)cnc1Cl.Cl [Example 190, 3-(2-(R)-Azetidinylmethoxy)-6-chloro-5-ethynylpyridine Hydrochloride]
110 to 112 °C | Cl.Cl.Cl.c1ncc(-c2cncc(OC[C@@H]3CCCN3)c2)cn1 [Example 174, 5-(5-Pyrimidinyl)-3-(2-(S)-pyrrolidinylmethoxy)pyridine Trihydrochloride]
90 °C (dec.) | C#Cc1cc(OC[C@@H]2CCN2)cnc1Cl.Cl [Example 175, 3-(2-(S)-Azetidinylmethoxy)-6-chloro-5-ethynylpyridine Hydrochloride]
185 °C (dec.) | Cl.Cl.c1ncc(-c2cncc(OC[C@@H]3CCN3)c2)cn1 [Example 171, 3-(2-(S)-Azetidinylmethoxy)-5-(5-pyrimidinyl)pyridine Dihydrochloride]
143 to 145 °C | Cl.Clc1ncc(OC[C@H]2CCN2)cc1-c1ccccc1 [Example 186, 3-(2-(R)-Azetidinylmethoxy)-6-chloro-5-phenylpyridine Hydrochloride]
88 to 90 °C | C=Cc1cncc(OC[C@@H]2CCN2)c1.Cl.Cl [Example 162, 3-(2-(S)-Azetidinylmethoxy)-5-ethenylpyridine Dihydrochloride]
145 to 147 °C | CC(C)(C)C=CC=Cc1cncc(OC[C@H]2CCCN2)c1.Cl.Cl [Example 138, 5-(5,5-Dimethyl-1,3-hexadienyl)-3-(2-(R)-pyrrolidinylmethoxy)pyridine Dihydrochloride]
178 to 180 °C | Clc1ncc(OC[C@H]2CCCN2)cc1-c1ccccc1 (as salt: salt) [Example 70]
